Results on 17 compounds are retold here after paper PMC3426641 (Biochemistry, 2012).

Read-outs that look alike come from different tables or passages of the source.

Data set [1] has as its target T1, Eis_Msm (Mycobacterium smegmatis, UniProt A0QY29). The data set is described as follows: Number of acetylations of AGs by Eis_Msm. It counts as biochemical. As to conditions: number of acetylations per AG; UV-Vis assay and LCMS, 25 °C, pH 8.0.
Data set [2] deals with T2, Eis_Mtb (Mycobacterium tuberculosis, UniProt P9WFK7). The data set is described as follows: biochemical.
Data set [3] concerns the target T1, Eis_Msm.
Data set [4] concerns the target T1, Eis_Msm. As to the kind of experiment: biochemical.
In data set [5] the test system is NC[C@H]1O[C@H](O[C@H]2[C@H](O)[C@@H](O[C@H]3O[C@H](CO)[C@@H](O)[C@H](N)[C@H]3O)[C@H](N)C[C@@H]2N)[C@H](N)C[C@@H]1O. As to the kind of experiment: purified protein, by the assay type. As to conditions: pH 8.0.
The subject of data set [6] is NC[C@H]1O[C@H](O[C@H]2[C@H](O)[C@@H](O)[C@H](N)C[C@@H]2N)[C@H](N)[C@@H](O)[C@@H]1O. The data set is described as follows: purified protein, by the assay type. As to conditions: pH 8.0.
Data set [7] relates to NCC[C@H](O)C(=O)N[C@@H]1C[C@H](N)[C@@H](O[C@H]2O[C@H](CN)[C@@H](O)[C@H](O)[C@H]2O)[C@H](O)[C@H]1O[C@H]1O[C@H](CO)[C@@H](O)[C@H](N)[C@H]1O. The data set is described as follows: purified protein, by the assay type. Conditions: pH 8.0.
Data set [8] concerns the target T2, Eis_Mtb.
Data set [9] has as its target T2, Eis_Mtb. The data set is described as follows: Inhibition of Eis_Mtb NEO acetylation. The class given is biochemical.
The target of data set [10] is T1, Eis_Msm. As to the kind of experiment: Inhibition of Eis_Msm NEO acetylation. Conditions: for mode of inhibition: Eis_Msm, against NEO. The class given is biochemical.
Data set [11] deals with CCN[C@@H]1C[C@H](N)[C@@H](O[C@H]2OC(CN)=CC[C@H]2N)[C@H](O)[C@H]1O[C@H]1OC[C@](C)(O)[C@H](NC)[C@H]1O. As to the kind of experiment: purified protein, by the assay type. Conditions: other: Eis_Msm, pH 8.0.
Data set [12] concerns NC[C@@H]1O[C@H](O[C@H]2[C@@H](O)[C@H](O[C@@H]3[C@@H](O)[C@H](N)C[C@H](N)[C@H]3O[C@H]3O[C@H](CN)[C@@H](O)[C@H](O)[C@H]3N)O[C@@H]2CO)[C@H](N)[C@@H](O)[C@@H]1O. As to the kind of experiment: purified protein, by the assay type. Conditions: other: Eis_Msm, pH 8.0.
The subject of data set [13] is CN[C@@H]1[C@@H](O)[C@@H](O[C@@H]2[C@@H](O)[C@H](O[C@H]3OC(CN)=CC[C@H]3N)[C@@H](N)C[C@H]2N)OC[C@]1(C)O. The data set is described as follows: purified protein, by the assay type. As to conditions: other: Eis_Msm, pH 8.0.
The test system of data set [14] is NC[C@@H]1O[C@H](O[C@H]2[C@@H](O)[C@H](O[C@@H]3[C@@H](O)[C@H](N)C[C@H](N)[C@H]3O[C@H]3O[C@H](CO)[C@@H](O)[C@H](O)[C@H]3N)O[C@@H]2CO)[C@H](N)[C@@H](O)[C@@H]1O. The data set is described as follows: purified protein, by the assay type. Conditions: other: Eis_Msm, fixed AcCoA 0.1 mM, varying AG, 25 °C, pH 8.0.
The mark [15] stands for this setting: Eis_Msm, fixed AG 0.5 mM, varying AcCoA, 25 °C, pH 8.0.
The mark [16] stands for this setting: other: Eis_Msm, fixed AcCoA 0.1 mM, varying AG, 25 °C.
The mark [17] stands for this setting: fixed AcCoA 0.1 mM, varying AG, 25 °C.
[18] abbreviates: random sequential mechanism, 25.0 °C.

T2 sequence (P9WFK7 whole entry): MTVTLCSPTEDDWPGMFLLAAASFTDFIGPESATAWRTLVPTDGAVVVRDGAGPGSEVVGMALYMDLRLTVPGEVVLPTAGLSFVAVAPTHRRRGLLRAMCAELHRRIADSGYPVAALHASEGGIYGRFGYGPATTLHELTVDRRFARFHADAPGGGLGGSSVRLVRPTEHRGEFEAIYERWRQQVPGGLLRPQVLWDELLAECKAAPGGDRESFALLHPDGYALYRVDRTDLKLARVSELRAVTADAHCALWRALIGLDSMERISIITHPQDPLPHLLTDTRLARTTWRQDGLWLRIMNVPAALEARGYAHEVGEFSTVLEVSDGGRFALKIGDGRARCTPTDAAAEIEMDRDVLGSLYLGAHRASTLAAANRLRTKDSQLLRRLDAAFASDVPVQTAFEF

With `CN[C@@H]1[C@H](O)[C@H](NC)[C@H]2O[C@@]3(O)C(=O)C[C@@H](C)O[C@H]3O[C@@H]2[C@H]1O` [SPT, spectinomycin], in [1], the “level of acetylation by Eis from M. smegmatis” value (“level of acetylation by Eis” for short) was “not modified”.

With `CN[C@@H]1[C@@H](O[C@H]2O[C@H](CO)[C@@H](N)[C@H](O)[C@H]2O)OC2C[C@@H](N)[C@@H](O[C@H]3[C@H](O)[C@@H](O)[C@H](N)C[C@@H]3N)OC2[C@@H]1O` (stereo partly shown) [APR, apramycin], the “level of acetylation by Eis” value in [1] is reported as “di-acetylated”.

What is called Kd is the free concentration of one partner at which half of the binding sites on the other are occupied at equilibrium, for simple one-to-one binding. Regarding `CCN[C@@H]1C[C@H](N)[C@@H](O[C@H]2OC(CN)=CC[C@H]2N)[C@H](O)[C@H]1O[C@H]1OC[C@](C)(O)[C@H](NC)[C@H]1O` [NET, netilmicin], the dissociation constant Kd in data set [2] worked out at 31 ± 10 µM; in data set [4], 108 ± 35 µM. For the same compound, in data set [3] (setting [15]), the “kcat,AcCoA” value is 0.819 ± 0.121 s⁻¹. In addition, the “level of acetylation by Eis” value in data set [1] is reported as “di-acetylated”.

On to `NC[C@H]1O[C@H](O[C@H]2[C@H](O[C@@H]3O[C@H](CO)[C@@H](O)[C@H]3O)[C@@H](O)[C@H](N)C[C@@H]2N)[C@H](N)[C@@H](O)[C@@H]1O` [RIB, ribostamycin], for which the “level of acetylation by Eis” value in data set [1] is given as “tri-acetylated”.

In general, Km refers to the substrate concentration at which the rate is half of its maximum. As a reminder, the kcat is the maximal rate divided by the concentration of active sites. In the case of “Eis_Mtb (Mycobacterium tuberculosis H37Rv)”, the Michaelis constant (Km) in data set [5] (25.0 °C) stood at 116 ± 17 µM; in [6] (25.0 °C), 137 ± 57 µM; in [7] (25.0 °C), 113 ± 35 µM. For the same compound, the kcat was 0.21 ± 0.01 s⁻¹ in [5] (25.0 °C), 0.064 ± 0.01 s⁻¹ in [6] (25.0 °C) and 0.03 ± 0.004 s⁻¹ in data set [7] (25.0 °C).

In the case of `CN[C@@H]1[C@@H](O)[C@@H](O[C@@H]2[C@@H](O)[C@H](O[C@H]3OC(CN)=CC[C@H]3N)[C@@H](N)C[C@H]2N)OC[C@]1(C)O` [SIS, sisomicin], the Kd in [2] is 340 ± 140 µM; in data set [4] it was 179 ± 54 µM. The “kcat,AcCoA” value in [3] (25 °C, pH 8.0) amounted to 0.620 ± 0.063 s⁻¹. Moreover, the “level of acetylation by Eis” value in data set [1] is “tri-acetylated”.

For `NC[C@H]1O[C@H](O[C@H]2[C@H](O)[C@@H](O)[C@H](N)C[C@@H]2N)[C@H](N)[C@@H](O)[C@@H]1O` [NEA, neamine], the Kd in data set [2] is 95 ± 50 µM; in [4], 141 ± 60 µM. The “level of acetylation by Eis” value in data set [1] is recorded as “tri-acetylated”.

As to kanamycin A, in data set [8], the “kcat (microscopic rate constant of acetylation)” value was determined as 0.16 ± 0.07 s⁻¹ and the “kcat,AcCoA” value was determined as 0.094 ± 0.004 s⁻¹. Further, the “kcat,AcCoA” value in data set [3] (setting [15]) was found to be 0.398 ± 0.060 s⁻¹. For the same compound, the “kcat,AG” value in data set [3] (Eis_Msm, fixed AcCoA 0.1 mM, varying AG, 25 °C, pH 8.0) amounted to 0.108 ± 0.005 s⁻¹. Moreover, the “level of acetylation by Eis” value in data set [1] is recorded as “di-acetylated”.

Turning to `CC(=O)SCCNC(=O)CCNC(=O)[C@H](O)C(C)(C)COP(=O)(O)OP(=O)(O)OC[C@H]1O[C@@H](n2cnc3c(N)ncnc32)[C@H](O)[C@@H]1OP(=O)(O)O` [AcCoA, acetyl-coenzyme A], in [3] (Eis_Msm, AG = KAN), the “Kd,AcCoA(E) fold smaller than Kd,AcCoA(E•AG)” value is “approximately 17 fold”.

A word on the Ki: it is the equilibrium dissociation constant of an inhibitor or competing ligand from its target. For orientation: IC50 means the concentration at which inhibition is half-maximal. Low values mean greater potency in that assay, high ones weaker potency in that assay. As for `[H]/N=C(\N/C(=N/[H])NCCCCCCNC(=N)NC(=N)Nc1ccc(Cl)cc1)Nc1ccc(Cl)cc1` [chlorhexidine (1), chlorhexidine], the figures for the Ki in data set [9] and in data set [10] were 0.105 ± 0.024 µM and 0.47 ± 0.15 µM, respectively. The IC50 in data set [10] amounted to 1.85 µM. Besides, the mode of inhibition result in data set [10] (listed as 1) is “AG-competitive mode”; in data set [10] (listed as Chlorhexidine (1)), “competitive inhibitor of NEO”.

`CN[C@@H]1C[C@H](N)[C@@H](O)[C@H](O[C@H]2O[C@H](CO)[C@H](O)[C@@H]3O[C@@]4(O[C@@H]23)O[C@H]([C@H](N)CO)[C@H](O)[C@H](O)[C@H]4O)[C@H]1O` [HYG, hygromycin]: in data set [1], the “level of acetylation by Eis” value is recorded as “mono-acetylated”.

With “Eis_Msm (Mycolicibacterium smegmatis MC2 155)”, the Km in [5] (setting [16]) turned out to be 131 ± 22 µM; in data set [11] (setting [17]) it was 197 ± 30 µM; in data set [12] (setting [17]) it was 314 ± 77 µM; in [13] (setting [17]) it was 82 ± 8 µM; in data set [6] (setting [16]), 359 ± 101 µM; in [14] it was 153 ± 55 µM. The Km in [7] (setting [16]) worked out at 251 ± 55 µM. The kcat in [5] (setting [16]) was 0.267 ± 0.016 s⁻¹; in data set [11] (setting [17]), 0.835 ± 0.057 s⁻¹; in data set [11] (setting [18]) it was 1 ± 0.4 s⁻¹; in data set [12] (setting [18]), above 1 s⁻¹; in data set [13] (setting [17]), 0.206 ± 0.006 s⁻¹; in data set [13] (setting [18]) it was 0.85 ± 0.25 s⁻¹. Moreover, the kcat is 0.176 ± 0.027 s⁻¹ in data set [6] (setting [16]); 0.035 ± 0.006 s⁻¹ in data set [14]; above 0.3 s⁻¹ in [7] (other: Eis_Msm, random sequential mechanism, 25.0 °C).

Take `NC[C@@H]1O[C@H](O[C@H]2[C@@H](O)[C@H](O[C@@H]3[C@@H](O)[C@H](N)C[C@H](N)[C@H]3O[C@H]3O[C@H](CO)[C@@H](O)[C@H](O)[C@H]3N)O[C@@H]2CO)[C@H](N)[C@@H](O)[C@@H]1O` [PAR, paromomycin]: the “kcat,AG” value in [8] amounted to 0.15 ± 0.01 s⁻¹. Also, in [8] (read-out: Km,AG), the Km was determined as 96 ± 20 µM. Also, the “level of acetylation by Eis” value in data set [1] is on record as “tri-acetylated”.

`NC[C@@H]1O[C@H](O[C@H]2[C@@H](O)[C@H](O[C@@H]3[C@@H](O)[C@H](N)C[C@H](N)[C@H]3O[C@H]3O[C@H](CN)[C@@H](O)[C@H](O)[C@H]3N)O[C@@H]2CO)[C@H](N)[C@@H](O)[C@@H]1O` [NEO, neomycin B]: the Kd in [2] was 75 ± 41 µM; in data set [4], above 1000 µM. Further, the “kcat,AcCoA” value in data set [3] (25 °C, pH 8.0) turned out to be 0.546 ± 0.065 s⁻¹. Also, the “level of acetylation by Eis” value in data set [1] is reported as “tri-acetylated”.

As to `NC[C@H]1O[C@H](O[C@H]2[C@H](O)[C@@H](O[C@H]3O[C@H](CO)[C@@H](O)[C@H](N)[C@H]3O)[C@H](N)C[C@@H]2N)[C@H](N)C[C@@H]1O` [TOB, tobramycin], the “level of acetylation by Eis” value in data set [1] was “tetra-acetylated”.

As to `NCC[C@H](O)C(=O)N[C@@H]1C[C@H](N)[C@@H](O[C@H]2O[C@H](CN)[C@@H](O)[C@H](O)[C@H]2O)[C@H](O)[C@H]1O[C@H]1O[C@H](CO)[C@@H](O)[C@H](N)[C@H]1O` [AMK, amikacin], the Kd in data set [2] is 32 ± 14 µM; in [4] it was above 1000 µM. The “kcat,AcCoA” value in data set [3] (setting [15]) amounted to 0.142 ± 0.026 s⁻¹. Further, the “level of acetylation by Eis” value in data set [1] was “tri-acetylated”.

In the case of `[H]/N=C(/N)N[C@H]1[C@H](O)[C@@H](O)[C@H](O[C@@H]2O[C@@H](C)[C@](O)(C=O)[C@H]2O[C@@H]2O[C@@H](CO)[C@H](O)[C@@H](O)[C@@H]2NC)[C@@H](N/C(N)=N\[H])[C@@H]1O` [STR, streptomycin], the “level of acetylation by Eis” value in data set [1] is reported as “not modified”.
